This note sets out measurements from ChEMBL document CHEMBL6153144, “Conformational Role of Methyl in the Potency of Cyclohexane-Substituted Squaramide CCR6 Antagonists” (J Med Chem, 2025).

Structures are written as SMILES.

By logD is commonly meant the decadic logarithm of the distribution of all forms, ionised or not, between an organic phase and buffer at a given pH. Broadly, the IC50 is the concentration that inhibits the measured activity by half. Low readings indicate greater potency, high ones weaker potency. One may read the inhibition as the percentage by which the read-out fell short of the control. High values mean a strong effect, low ones a weak effect.

Data set [1] in a line: Lipophilicity, logD of compound by shake flask method. Format: physicochemical. The following applies: octanol/water.
Data set [2] in a line: Metabolic stability in human hepatocytes assessed as apparent intrinsic clearance measured per molar. Format: ADME, cell-based, Hepatocyte.
For data set [3], the target named is Voltage-gated inwardly rectifying potassium channel KCNH2 (Homo sapiens, UniProt Q12809). The experiment in a line: Inhibition of hERG. Format: toxicity. (Block of hERG is tested as a sign of cardiac risk.)
Sequence of Voltage-gated inwardly rectifying potassium channel KCNH2 (Q12809 whole entry, canonical isoform): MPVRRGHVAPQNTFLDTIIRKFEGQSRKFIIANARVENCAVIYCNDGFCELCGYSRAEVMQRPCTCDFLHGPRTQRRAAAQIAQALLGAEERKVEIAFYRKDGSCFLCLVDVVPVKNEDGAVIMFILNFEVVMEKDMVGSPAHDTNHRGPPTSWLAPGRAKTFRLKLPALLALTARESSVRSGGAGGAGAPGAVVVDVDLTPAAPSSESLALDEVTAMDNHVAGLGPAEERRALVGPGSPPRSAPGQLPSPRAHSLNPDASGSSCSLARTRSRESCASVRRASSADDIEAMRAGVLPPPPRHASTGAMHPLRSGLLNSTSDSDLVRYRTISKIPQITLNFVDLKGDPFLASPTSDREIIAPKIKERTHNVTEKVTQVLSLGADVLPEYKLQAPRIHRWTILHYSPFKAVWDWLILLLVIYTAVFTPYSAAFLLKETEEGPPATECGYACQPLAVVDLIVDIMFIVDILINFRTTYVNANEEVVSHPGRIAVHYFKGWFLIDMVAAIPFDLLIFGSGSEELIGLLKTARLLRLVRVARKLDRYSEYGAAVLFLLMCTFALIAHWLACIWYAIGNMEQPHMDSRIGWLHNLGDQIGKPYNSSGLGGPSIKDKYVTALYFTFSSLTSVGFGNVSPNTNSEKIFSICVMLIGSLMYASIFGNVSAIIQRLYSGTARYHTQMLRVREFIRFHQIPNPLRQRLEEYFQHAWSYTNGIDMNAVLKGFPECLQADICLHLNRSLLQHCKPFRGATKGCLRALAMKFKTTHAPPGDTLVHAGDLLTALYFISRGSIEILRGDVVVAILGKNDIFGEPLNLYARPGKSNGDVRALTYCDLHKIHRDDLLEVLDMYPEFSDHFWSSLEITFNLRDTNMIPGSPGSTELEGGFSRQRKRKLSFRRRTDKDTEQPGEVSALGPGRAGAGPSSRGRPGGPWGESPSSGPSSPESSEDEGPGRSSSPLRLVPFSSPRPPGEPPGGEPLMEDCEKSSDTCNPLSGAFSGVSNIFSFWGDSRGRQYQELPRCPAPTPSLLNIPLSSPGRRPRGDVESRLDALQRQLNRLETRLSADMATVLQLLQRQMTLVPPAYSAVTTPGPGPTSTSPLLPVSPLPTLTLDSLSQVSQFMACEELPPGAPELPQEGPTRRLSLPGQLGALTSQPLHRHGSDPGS
A further data set deals with CYP (isoform not stated) (Homo sapiens, UniProt P04798+P05177+P05181+P08684+P10632+P10635+P11509+P11712+P13584+P20813+P20815+P20853+P24462+P24903+P33260+P33261+P51589+P78329+P98187+Q02928+Q08477+Q16678+Q16696+Q5TCH4+Q6VVX0+Q7Z449+Q8TAV3+Q96SQ9+Q9HB55). Description: Inhibition of CYP (unknown origin) at 3 uM relative to control. Format: ADME, protein assay.

As to `CN(C)C(=O)c1nccc(Nc2c(NC3CCCCC3)c(=O)c2=O)c1O`, the logD in data set [1] is 0.86.

For `C[C@H]1OCCC[C@@]1(C)Nc1c(Nc2ccnc(C(=O)N(C)C)c2O)c(=O)c1=O`, in data set [2], the “CL(app)” value was 3.4 µL/min.

For `C[C@H]1CCCC[C@H]1Nc1c(Nc2ccnc(C(=O)N(C)C)c2O)c(=O)c1=O`, the “CL(app)” value in data set [2] came out at 6.8 µL/min.

As for `C[C@@H]1CCCC[C@@H]1Nc1c(Nc2ccnc(C(=O)N(C)C)c2O)c(=O)c1=O`, the “CL(app)” value in data set [2] worked out at 4.7 µL/min.

As for `C[C@@H]1CCC[C@H](C)[C@@H]1Nc1c(Nc2ccnc(C(=O)N(C)C)c2O)c(=O)c1=O`, the “CL(app)” value in data set [2] turned out to be 6.9 µL/min.

As for `C[C@@H]1OCCC[C@]1(C)Nc1c(Nc2ccnc(C(=O)N(C)C)c2O)c(=O)c1=O`, the “CL(app)” value in data set [2] amounted to 2.9 µL/min. The compound also displayed a concentration for half-maximal inhibition (IC50) in data set [3] greater than 100 µM. At CYP (isoform not stated), this compound registered an inhibition at 3 µM of less than 5%.

Take `C[C@@H]1CCCC[C@]1(C)Nc1c(Nc2ccnc(C(=O)N(C)C)c2O)c(=O)c1=O`: in data set [2], the “CL(app)” value is 9.9 µL/min.

As to `C[C@H]1CCCC[C@@]1(C)Nc1c(Nc2ccnc(C(=O)N(C)C)c2O)c(=O)c1=O`, in data set [2], the “CL(app)” value was found to be 8.3 µL/min.
